Experimental data from US10238747B2 (priority 2010, dated 2019).
Where “and” joins values, the source holds several entries; their conditions need not be identical. Identical values can stand only once.

Key:
Dendritic Cells = format: cell-based, Balb/c mice
CIA model of RA = details: mouse, in vivo; cited from earlier work
BALB/c and C57BL6 mice = details: mouse, in vivo
CD4 = CD4 (Homo sapiens, UniProt P01730); details: T cell co-stimulator molecule; cited from earlier work
[1] = 2-8° C.

DLLKNGERIEKVEGGGTGGKPGIAGFKGEQGPKGEP [CEL-2000]
IL-12p70 Conc., R&D Systems (IL-12p70), Avg (Dendritic Cells): 67.9 pg/mL and 35.4 pg/mL and 58.2 pg/mL
disease suppression (CIA model of RA): suppress disease over a 90 day period
efficacy compared with Enbrel (CIA model of RA): more effective than Enbrel
safety and tolerability (CIA model of RA): safe and well-tolerated
serum IL-1 change (CIA model of RA): reduced
serum IL-10 change (CIA model of RA): increased
serum IL-12p40 change (CIA model of RA): decrease
serum IL-12p70 change (CIA model of RA): increased
serum MCP-1 change (CIA model of RA): reduced
serum TNF-α change (CIA model of RA): reduced

DLLKNGERIEKVEGGGSLLTEVETPIRNEWGCRCNDSSD [J-M2e]
serum IFN-y, secondary response (FIG. 2) (BALB/c and C57BL6 mice): increase
serum IFN-γ response, normalized to adjuvant control (FIG. 1) (BALB/c and C57BL6 mice): higher amounts
serum IL-10, secondary response (FIG. 2) (BALB/c and C57BL6 mice): increase
serum IL-12 p40p70, secondary response (FIG. 2) (BALB/c and C57BL6 mice): increase
serum IL-12p40 response, normalized to adjuvant control (FIG. 1) (BALB/c and C57BL6 mice): higher for C57BL6 mice
serum IL-12p70, secondary response (FIG. 2) (BALB/c and C57BL6 mice): increase
serum MCP-1 response, normalized to adjuvant control (FIG. 1) (BALB/c and C57BL6 mice): higher amounts

DLLKNGERIEKVEGGGGLFGAIAGFIEGG [J-HA2 core 1]
primary response: antibody production (day 24 or 38) or cytokine responses (day 3, 10 and 24) (BALB/c and C57BL6 mice): very little response

DLLKNGERIEKVEGGGNDATYQRTRALVRTG [J-NP]
serum IFN-y, secondary response (FIG. 2) (BALB/c and C57BL6 mice): sustained levels
serum IFN-γ response, normalized to adjuvant control (FIG. 1) (BALB/c and C57BL6 mice): higher amounts
serum IL-10, secondary response (FIG. 2) (BALB/c and C57BL6 mice): sustained levels
serum IL-12 p40p70, secondary response (FIG. 2) (BALB/c and C57BL6 mice): sustained levels
serum IL-12p40 response, normalized to adjuvant control (FIG. 1) (BALB/c and C57BL6 mice): higher for C57BL6 mice
serum IL-12p70, secondary response (FIG. 2) (BALB/c and C57BL6 mice): sustained levels
serum MCP-1 response, normalized to adjuvant control (FIG. 1) (BALB/c and C57BL6 mice): higher amounts

DLLKNGERIEKVEGGGYSVHQRIDVKDTKEALEKIEEEQNKSKKKA [JH]
TNF-a Conc., R&D Systems TNF-a, Avg (Dendritic Cells): 905.7 pg/mL and 685.0 pg/mL and 830.9 pg/mL
TNF-a Conc., RayBio TNF-a, Avg (Dendritic Cells): 29.6 pg/mL

DLLKNGERIEKVEGGGLKSTQNAIDEITNKVN [J-HA2 core 2]
primary response: antibody production (day 24 or 38) or cytokine responses (day 3, 10 and 24) (BALB/c and C57BL6 mice): very little response

(amino)-DGQEEKAGVVSTGLIGGG-(amide) (H-DGQEEKAGVVSTGLIGGG-NH2) [CEL-1000]
binding to CD4 (CD4): shown to bind to CD4
stability of formulation (time extremely stable) [1]: over 2 years

lipopolysaccharide [LPS]
IL-12p70 Conc., R&D Systems (IL-12p70), Avg (Dendritic Cells): 57.0 pg/mL and 78.5 pg/mL and 62.5 pg/mL
TNF-a Conc., R&D Systems TNF-a, Avg (Dendritic Cells): 5229.9 pg/mL and 3313.2 pg/mL and 3083.0 pg/mL
TNF-a Conc., RayBio TNF-a, Avg (Dendritic Cells): 3206.0 pg/mL and 2142.3 pg/mL and 2028.6 pg/mL
